Source: ChEMBL document CHEMBL2169808, “Discovery of pyrazole carboxylic acids as potent inhibitors of rat long chain L-2-hydroxy acid oxidase” (Bioorg Med Chem Lett, 2012)

Experiments:
[1] = target: T1, 2-Hydroxyacid oxidase 2 (Homo sapiens) (UniProt Q9NYQ3); test: Inhibition of human Hao2-mediated oxidation of 2-hydroxyoctanoic acid assessed as proportionate release of H2O2 at 1 uM
T1 sequence (whole entry): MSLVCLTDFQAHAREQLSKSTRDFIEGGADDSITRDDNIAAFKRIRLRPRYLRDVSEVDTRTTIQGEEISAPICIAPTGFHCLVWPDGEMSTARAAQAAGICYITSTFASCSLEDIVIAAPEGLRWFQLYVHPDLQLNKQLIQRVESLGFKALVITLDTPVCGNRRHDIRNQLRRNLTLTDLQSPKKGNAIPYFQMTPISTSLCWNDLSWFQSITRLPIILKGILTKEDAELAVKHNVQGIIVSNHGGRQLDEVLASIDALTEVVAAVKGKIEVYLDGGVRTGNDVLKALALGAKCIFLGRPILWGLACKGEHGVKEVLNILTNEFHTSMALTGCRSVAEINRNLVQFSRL

2-Hydroxyacid oxidase 2 = target: T2, 2-Hydroxyacid oxidase 2 (Rattus norvegicus, UniProt Q07523); test: Inhibition of rat Hao2-mediated oxidation of 2-hydroxyoctanoic acid assessed as proportionate release of H2O2
T2 sequence (Q07523 whole entry): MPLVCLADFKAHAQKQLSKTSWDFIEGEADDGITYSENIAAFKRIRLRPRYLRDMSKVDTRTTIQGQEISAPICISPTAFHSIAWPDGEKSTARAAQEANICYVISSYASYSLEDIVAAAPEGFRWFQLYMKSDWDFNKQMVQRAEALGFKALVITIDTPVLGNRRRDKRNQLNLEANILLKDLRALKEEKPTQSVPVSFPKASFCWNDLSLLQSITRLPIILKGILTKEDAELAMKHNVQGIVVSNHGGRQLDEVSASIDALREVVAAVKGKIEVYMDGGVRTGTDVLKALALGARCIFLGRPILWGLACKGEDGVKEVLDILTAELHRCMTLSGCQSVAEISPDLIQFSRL

[2] = target: T1, 2-Hydroxyacid oxidase 2 (Homo sapiens); test: Inhibition of human Hao2-mediated oxidation of 2-hydroxyoctanoic acid assessed as proportionate release of H2O2 at 10 uM
Rattus norvegicus = species on record: Rattus norvegicus; test: Selectivity ratio of IC50 for rat Hao1 to IC50 for rat Hao2

Structure (SMILES)	inhibition [1] [%]	IC50 (2-Hydroxyacid oxidase 2) [µM]	inhibition [2] [%]	Ratio IC50 (Rattus norvegicus)
Cc1n[nH]c(C(=O)O)c1Cc1cccc(-c2ccncc2)c1	13	0.3	49	> 150
O=C(O)c1n[nH]c(CCc2ccccc2)c1Cc1cccc(-c2ccc(F)cc2)c1	–	0.8	–	–
Cc1n[nH]c(C(=O)O)c1Cc1ccc2ccccc2c1	8	1.1	12	> 150
Cc1[nH]nc(C(=O)O)c1Cc1ccc(C(N)=O)cc1	–	1.1	–	–
Cc1n[nH]c(C(=O)O)c1Cc1ccc(OC(F)(F)F)cc1	7	1.3	34	> 150
Cc1n[nH]c(C(N)=O)c1Cc1cccc(-c2ccc(F)cc2)c1	1	–	14	–
Cc1n[nH]c(C(=O)O)c1CCc1ccc(-c2ccc(F)cc2)cc1	5	0.9	39	> 150
Cc1n[nH]c(C(=O)O)c1Cc1ccc(F)cc1	7	–	14	> 150
Cc1n[nH]c(C(=O)O)c1Cc1cccc(-c2ccc(C(=O)O)cc2)c1	3	1.1	15	> 150
CC(C)c1n[nH]c(C(=O)O)c1Cc1cccc(-c2ccc(F)cc2)c1	2	0.5	11	> 150
Cc1[nH]nc(C(N)=O)c1Cc1cccc(-c2ccc(F)cc2)c1	–	1.4	–	–
O=C(O)c1n[nH]c(Cc2ccccc2)c1Cc1cccc(-c2ccc(F)cc2)c1	–	0.7	–	–
Cc1n[nH]c(C(=O)O)c1Cc1cccc(OC(F)(F)F)c1	2	0.7	26	> 150
Cc1[nH]nc(C(=O)O)c1Cc1ccc(-c2ccc(C(F)(F)F)cc2)cc1	–	1.1	–	–
Cc1n[nH]c(C(=O)O)c1Cc1cccc(C#N)c1	6	–	19	> 150
Cc1n[nH]c(C(=O)O)c1Cc1ccccc1C(F)(F)F	13	–	38	> 150
Cc1n[nH]c(C(=O)O)c1Cc1cccc(-c2ccc(C#N)cc2)c1	13	–	46	> 150
CCc1[nH]nc(C(=O)O)c1Cc1cccc(-c2ccc(F)cc2)c1	–	0.3	–	–
Cc1[nH]nc(C(=O)O)c1Cc1ccccc1C(F)(F)F	–	1.3	–	–

Structure (SMILES)	inhibition [1] [%]	IC50 (2-Hydroxyacid oxidase 2) [µM]	inhibition [2] [%]	Ratio IC50 (Rattus norvegicus)
Cc1n[nH]c(C(=O)O)c1Cc1cccc(C(N)=O)c1	8	–	8	> 150
Cc1n[nH]c(C(=O)O)c1Cc1cccc(-c2ccc(C(F)(F)F)cc2)c1	8	–	30	> 150
Cc1[nH]nc(C(=O)O)c1Cc1cccc(-c2ccc(C#N)cc2)c1	–	0.3	–	–
Cc1[nH]nc(C(=O)O)c1Cc1cccc(-c2cccnc2)c1	–	0.4	–	–
Cc1[nH]nc(C(=O)O)c1Cc1ccc(-c2ccc(F)cc2)cc1	–	0.4	–	–
Cc1[nH]nc(C(=O)O)c1Cc1cccc(C(N)=O)c1	–	0.9	–	–
O=C(O)c1[nH]nc(-c2ccccc2)c1Cc1cccc(-c2ccc(F)cc2)c1	1	1.8	14	> 150
Cc1[nH]nc(C(=O)O)c1Cc1cccc(C(F)(F)F)c1	–	0.3	–	–
Cc1n[nH]c(C(=O)O)c1Cc1cccc(-c2ccc(F)cc2)c1	16	–	55	> 150
Cc1n[nH]c(C(=O)O)c1Cc1ccc(-c2ccc(OC(F)(F)F)cc2)cc1	11	–	29	> 150
Cc1n[nH]c(C(=O)O)c1Cc1cccc2ccccc12	22	–	59	> 150
CCOc1[nH]nc(C(=O)O)c1Cc1cccc(-c2ccc(F)cc2)c1	–	1.2	–	–
Cc1n[nH]c(C(=O)O)c1Cc1ccc(Oc2ccccc2)cc1	10	–	43	> 150
Cc1n[nH]c(C(=O)O)c1Cc1cccc(-c2ccccc2F)c1	5	0.9	22	> 150
Cc1n[nH]c(C(=O)O)c1Cc1cccc(-c2ccc(C(N)=O)cc2)c1	18	0.2	60	> 150
Cc1n[nH]c(C(=O)O)c1Cc1cccc(C(F)(F)F)c1	5	–	23	> 150
Cc1[nH]nc(C(=O)O)c1Cc1cccc2ccccc12	–	0.2	–	–
Cc1n[nH]c(C(=O)O)c1Cc1ccc(-c2ccc(C(F)(F)F)cc2)cc1	5	–	14	> 150
Cc1[nH]nc(C(=O)O)c1Cc1ccc(-c2ccc(OC(F)(F)F)cc2)cc1	–	2	–	–

Structure (SMILES)	inhibition [1] [%]	IC50 (2-Hydroxyacid oxidase 2) [µM]	inhibition [2] [%]	Ratio IC50 (Rattus norvegicus)
O=C(O)c1[nH]nc(Cc2ccccc2)c1Cc1cccc(-c2ccc(F)cc2)c1	10	–	8	> 150
Cc1[nH]nc(C(=O)O)c1Cc1ccc(Oc2ccccc2)cc1	–	0.5	–	–
Cc1[nH]nc(C(=O)O)c1Cc1ccc(F)cc1	–	0.7	–	–
Cc1n[nH]c(C(=O)O)c1CCc1cccc(-c2ccc(F)cc2)c1	9	0.9	45	> 150
Cc1n[nH]c(C(=O)O)c1Cc1cccc(Oc2ccccc2)c1	12	0.6	41	> 150
Cc1[nH]nc(C(=O)O)c1Cc1cccc(-c2ccc(CC(=O)O)cc2)c1	–	0.4	–	–
O=C(O)c1[nH]nc(CCc2ccccc2)c1Cc1cccc(-c2ccc(F)cc2)c1	4	–	16	> 150
Cc1n[nH]c(C(=O)O)c1Cc1ccc(-c2ccc(F)cc2)cc1	11	–	25	> 150
Cc1n[nH]c(C(=O)O)c1Cc1cccc(-c2cccnc2)c1	13	–	45	> 150
Cc1[nH]nc(C(=O)O)c1Cc1cccc(C#N)c1	–	0.5	–	–
Cc1[nH]nc(C(=O)O)c1Cc1cccc(-c2ccc(C(F)(F)F)cc2)c1	–	0.4	–	–
Cc1n[nH]c(C(=O)O)c1Cc1cccc(-c2cccc(F)c2)c1	20	–	50	> 150
CCc1n[nH]c(C(=O)O)c1Cc1cccc(-c2ccc(F)cc2)c1	5	–	36	> 150
Cc1[nH]nc(C(=O)O)c1Cc1cccc(-c2cccc(F)c2)c1	–	0.5	–	–
Cc1n[nH]c(C(=O)O)c1Cc1cc2ccccc2s1	8	–	29	> 150
Cc1n[nH]c(C(=O)O)c1Cc1ccc(C(N)=O)cc1	0	–	8	> 150
Cc1n[nH]c(C(=O)O)c1Cc1cccc(-c2ccc(CC(=O)O)cc2)c1	2	–	21	> 150
CCOc1n[nH]c(C(=O)O)c1Cc1cccc(-c2ccc(F)cc2)c1	1	–	17	> 150
